This is an account of results in patent US7981903B2, “2-[2-{phenylamino}-1H-pyrrolo[2,3-D]pyrimidin-4-yl)amino] benzamide derivatives as IGF-1R inhibitors for the treatment of cancer” (GlaxoSmithKline LLC, priority 2007, dated 2011).

One experiment concerns NCI-H929. As to the kind of experiment: Inhibition of cell proliferation (CellTiter-Glo or InCell analyzer), NCI-H929. The class given is cell-based. Particulars: Homo sapiens, 72 h / 3 days, values given as IC50 category. As for the experimental part: Cell proliferation was measured by either CellTiter-Glo (measures cellular ATP level as a surrogate for total cell number) or by InCell analyzer (counts number of nuclei as a measure of cell number).
For CellTiter-Glo assay, exponentially growing cell lines of different tumor origins, cultured in appropriate media containing 10% fetal bovine serum at 37° C. in a 5% CO2 incubator, were plated at low density (less than 2000cells/well) in 96-well plates. Twenty four hours post-plating, cells were treated with different concentrations of test compounds ranging from 30 uM to 1.5 nM. Several wells were left untreated as a control. Seventy two hours post-treatment, cell numbers were determined using 50-100 ul per well of CellTiter-Glo (Promega #G7573). Plates were incubated at 37° C. for 30 minutes and the chemiluminescent signal was read on the Victor V or Envison 2100 reader.
For InCell Analyser assay, various cell lines of different tumor origins were grown to 70-80% confluency in appropriate culture media containing 10% fetal bovine serum at 37° C. in a 5% CO2 incubator. On day −1, cells were seeded at 2 densities in 384-well plates and incubated at 37° C. overnight. Stock compound plates were prepared in advance which contained dimethyl sulfoxide (DMSO) alone and a 9-point half-log decreasing dose range of the compound in DMSO. The compound plates were stored at −80° C. and each plate was only thawed once and used. On day 0, the main assay plates received compound or DMSO via a sonic delivery system (ECHO). The highest final concentration of compound of the dose range in the culture plates was 10 uM. These plates were cultured at 37° C. for 3 days. […] On day 3, the compound treated plates were stained and fixed to measure proliferation, apoptosis, and mitotic index using an InCelL1000 analyser. A nuclear stain was used to identify cells in the wells. By counting the number of nuclei, the proliferation index of compound treated groups were calculated as a percentage relative to the DMSO control, which was set to 100%. The IC50 values were calculated using model 205 in ExcelFit.
IC50 (nM) values for compounds of select examples were categorized by relative inhibition of cell proliferation.

For experiment [1], the target named is T1, NIH-3T3 cells overexpressing human IR (Homo sapiens, UniProt P06213).
T1 construct: expressed in transfected cells; host or cells: NIH-3T3 (mouse fibroblasts)
As to the kind of experiment: IR cellular autophosphorylation (DELFIA). It is filed as cell-based. As to conditions: 2 h compound, insulin 3 ug/ml for 15 minutes, IC50 category. An outline of the steps: (§1)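 Receptor autophosphorylation measured by DELFIA, capturing IGF-1R or IRβ and detecting with europium anti-pTyr, reported as percent of IGF-1- or insulin-stimulated signal. Compounds (30 uM to 1.5 nM) added 2 h before ligand, then 15 min stimulation (IGF-1 30 ng/ml or insulin 3 ug/ml).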

The next experiment concerns Colo205. As to the kind of experiment: Inhibition of cell proliferation (CellTiter-Glo or InCell analyzer), Colo205. Particulars: Homo sapiens, COLO 205, 72 h / 3 days, values given as IC50 category. The class given is cell-based. In outline: In one
A further experiment has as its target T2, human IGF1R (hIGF1R) (Homo sapiens, UniProt P08069).
T2 construct: containing amino acid residues 957-1367 of human IGF1R; made in house; host or cells: Sf9 cells (baculovirus)
As to the kind of experiment: TR-FRET kinase assay of purified hIGF1R. It is filed as biochemical. As to conditions: activated hIGF1R 0.5 nM, 10 μM ATP, values given as pIC50 category, read-out: IGF-1R pIC50 (converted).

For another experiment, the target named is T3, human IR (hIR) (Homo sapiens, UniProt P06213).
T3 construct: containing amino acid residues 979-1382 of human IR; made in house; host or cells: Sf9 cells (baculovirus), same process as hIGF1R
As to the kind of experiment: TR-FRET kinase assay of purified hIR. The class given is biochemical. Particulars: activated hIR 0.5 nM, 10 μM ATP, values given as pIC50 category.

Experiment [2] addresses T4, NIH-3T3 cells overexpressing human IGF-1R (Homo sapiens, UniProt P08069).
T4 construct: expressed in transfected cells; host or cells: NIH-3T3 (mouse fibroblasts)
As to the kind of experiment: IGF-1R cellular autophosphorylation (DELFIA). The class given is cell-based. In outline:
as §1

Another experiment has as its target ALK (Homo sapiens, UniProt Q9UM73). As to the kind of experiment: ALK enzyme assay (HTRF). It is filed as biochemical. Particulars: 0.25 nM ALK, 15.0 μM ATP, values given as pIC50 category. In outline: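 Isolated ALK phosphorylates a biotinylated tyrosine peptide, 120 min at 20° C; anti-phosphotyrosine Eu-cryptate/streptavidin-XL665 HTRF read after 60 min with EDTA-containing detection mix.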

Where “and” joins values, the source holds several entries; their conditions need not be identical. Equal entries are not always repeated.

T1 sequence (P06213 28-1382): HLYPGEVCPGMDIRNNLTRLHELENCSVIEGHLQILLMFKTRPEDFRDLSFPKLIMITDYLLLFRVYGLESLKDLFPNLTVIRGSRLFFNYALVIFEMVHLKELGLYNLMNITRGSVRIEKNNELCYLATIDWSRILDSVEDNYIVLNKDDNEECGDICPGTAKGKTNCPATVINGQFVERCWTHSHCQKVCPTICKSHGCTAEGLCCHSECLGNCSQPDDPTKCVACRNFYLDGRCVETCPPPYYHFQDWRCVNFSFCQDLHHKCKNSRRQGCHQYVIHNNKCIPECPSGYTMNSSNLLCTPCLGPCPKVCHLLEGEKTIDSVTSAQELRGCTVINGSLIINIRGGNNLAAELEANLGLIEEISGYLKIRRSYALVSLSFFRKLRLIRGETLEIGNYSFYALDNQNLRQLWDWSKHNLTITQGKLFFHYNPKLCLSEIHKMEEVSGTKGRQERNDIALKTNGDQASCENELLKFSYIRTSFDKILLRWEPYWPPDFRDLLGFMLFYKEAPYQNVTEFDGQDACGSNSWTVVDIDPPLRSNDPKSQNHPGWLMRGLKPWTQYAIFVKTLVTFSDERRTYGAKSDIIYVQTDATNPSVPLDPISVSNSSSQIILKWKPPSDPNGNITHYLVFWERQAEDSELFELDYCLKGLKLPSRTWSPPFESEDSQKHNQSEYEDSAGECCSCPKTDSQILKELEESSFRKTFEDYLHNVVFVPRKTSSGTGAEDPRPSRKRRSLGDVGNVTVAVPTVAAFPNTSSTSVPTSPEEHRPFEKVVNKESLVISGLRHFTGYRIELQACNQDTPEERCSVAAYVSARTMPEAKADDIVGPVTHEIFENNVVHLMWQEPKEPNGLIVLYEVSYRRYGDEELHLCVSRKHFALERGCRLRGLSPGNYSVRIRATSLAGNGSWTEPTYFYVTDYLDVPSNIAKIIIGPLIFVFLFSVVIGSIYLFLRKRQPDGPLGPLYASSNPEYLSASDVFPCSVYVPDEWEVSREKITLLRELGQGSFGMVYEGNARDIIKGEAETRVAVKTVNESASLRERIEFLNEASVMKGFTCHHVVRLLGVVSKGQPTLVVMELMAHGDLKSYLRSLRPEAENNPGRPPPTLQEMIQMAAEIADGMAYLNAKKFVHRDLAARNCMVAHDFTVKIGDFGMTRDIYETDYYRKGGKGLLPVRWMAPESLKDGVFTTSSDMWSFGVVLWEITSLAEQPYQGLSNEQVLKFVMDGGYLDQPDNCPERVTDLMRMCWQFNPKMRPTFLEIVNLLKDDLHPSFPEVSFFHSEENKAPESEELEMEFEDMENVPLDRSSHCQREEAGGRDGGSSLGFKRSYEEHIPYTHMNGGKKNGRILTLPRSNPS
ALK, sequence (Q9UM73 19-1620): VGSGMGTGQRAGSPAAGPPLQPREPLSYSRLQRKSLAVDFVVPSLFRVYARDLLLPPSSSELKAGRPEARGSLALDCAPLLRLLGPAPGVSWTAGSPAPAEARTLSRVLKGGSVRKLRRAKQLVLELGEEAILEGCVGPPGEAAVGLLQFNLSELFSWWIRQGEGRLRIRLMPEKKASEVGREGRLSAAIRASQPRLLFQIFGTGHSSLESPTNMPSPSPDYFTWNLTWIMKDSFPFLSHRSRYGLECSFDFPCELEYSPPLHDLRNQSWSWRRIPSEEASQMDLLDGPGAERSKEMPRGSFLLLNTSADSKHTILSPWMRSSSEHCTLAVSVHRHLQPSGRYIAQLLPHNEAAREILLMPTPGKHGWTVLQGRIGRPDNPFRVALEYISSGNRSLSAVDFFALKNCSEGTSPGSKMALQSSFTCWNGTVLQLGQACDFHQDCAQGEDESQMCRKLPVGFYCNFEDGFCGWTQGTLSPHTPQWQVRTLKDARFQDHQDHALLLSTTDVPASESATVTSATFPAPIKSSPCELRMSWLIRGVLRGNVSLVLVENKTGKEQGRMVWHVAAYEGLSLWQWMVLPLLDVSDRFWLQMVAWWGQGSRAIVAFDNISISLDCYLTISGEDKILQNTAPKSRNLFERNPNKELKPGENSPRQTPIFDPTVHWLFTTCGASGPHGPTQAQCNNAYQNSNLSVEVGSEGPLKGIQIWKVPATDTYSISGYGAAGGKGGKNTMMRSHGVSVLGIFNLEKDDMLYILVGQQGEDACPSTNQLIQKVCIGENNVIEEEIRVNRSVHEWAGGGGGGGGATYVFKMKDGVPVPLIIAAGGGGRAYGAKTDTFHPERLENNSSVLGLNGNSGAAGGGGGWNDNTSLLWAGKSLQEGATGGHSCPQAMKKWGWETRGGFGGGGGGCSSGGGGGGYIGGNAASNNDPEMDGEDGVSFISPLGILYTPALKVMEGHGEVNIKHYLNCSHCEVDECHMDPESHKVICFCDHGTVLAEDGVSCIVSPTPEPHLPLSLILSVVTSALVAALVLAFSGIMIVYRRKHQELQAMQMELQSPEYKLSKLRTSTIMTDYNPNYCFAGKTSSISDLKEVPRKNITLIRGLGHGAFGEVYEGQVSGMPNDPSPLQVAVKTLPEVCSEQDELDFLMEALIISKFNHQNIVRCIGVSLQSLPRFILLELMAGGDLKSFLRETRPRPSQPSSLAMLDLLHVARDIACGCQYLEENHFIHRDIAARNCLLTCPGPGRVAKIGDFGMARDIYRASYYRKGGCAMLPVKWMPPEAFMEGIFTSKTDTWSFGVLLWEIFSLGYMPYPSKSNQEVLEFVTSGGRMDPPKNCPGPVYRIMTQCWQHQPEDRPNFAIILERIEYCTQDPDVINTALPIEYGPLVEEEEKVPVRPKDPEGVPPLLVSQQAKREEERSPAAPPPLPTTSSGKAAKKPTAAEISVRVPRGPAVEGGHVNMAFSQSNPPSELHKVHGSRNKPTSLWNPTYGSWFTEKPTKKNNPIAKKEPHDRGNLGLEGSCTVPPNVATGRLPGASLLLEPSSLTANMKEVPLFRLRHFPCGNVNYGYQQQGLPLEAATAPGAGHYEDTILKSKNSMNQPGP
T2 sequence (P08069 957-1367): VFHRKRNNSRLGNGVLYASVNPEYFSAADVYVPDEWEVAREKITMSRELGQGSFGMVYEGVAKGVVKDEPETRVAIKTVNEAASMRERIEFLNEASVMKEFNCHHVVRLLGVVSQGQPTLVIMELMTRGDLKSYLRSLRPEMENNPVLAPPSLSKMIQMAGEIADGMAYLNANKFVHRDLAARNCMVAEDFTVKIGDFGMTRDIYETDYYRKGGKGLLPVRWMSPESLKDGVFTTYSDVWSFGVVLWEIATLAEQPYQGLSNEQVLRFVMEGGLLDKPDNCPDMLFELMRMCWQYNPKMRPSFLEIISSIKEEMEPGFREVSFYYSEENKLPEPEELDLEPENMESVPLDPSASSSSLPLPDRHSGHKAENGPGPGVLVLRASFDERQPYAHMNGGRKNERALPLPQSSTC
T3 sequence (P06213 979-1382): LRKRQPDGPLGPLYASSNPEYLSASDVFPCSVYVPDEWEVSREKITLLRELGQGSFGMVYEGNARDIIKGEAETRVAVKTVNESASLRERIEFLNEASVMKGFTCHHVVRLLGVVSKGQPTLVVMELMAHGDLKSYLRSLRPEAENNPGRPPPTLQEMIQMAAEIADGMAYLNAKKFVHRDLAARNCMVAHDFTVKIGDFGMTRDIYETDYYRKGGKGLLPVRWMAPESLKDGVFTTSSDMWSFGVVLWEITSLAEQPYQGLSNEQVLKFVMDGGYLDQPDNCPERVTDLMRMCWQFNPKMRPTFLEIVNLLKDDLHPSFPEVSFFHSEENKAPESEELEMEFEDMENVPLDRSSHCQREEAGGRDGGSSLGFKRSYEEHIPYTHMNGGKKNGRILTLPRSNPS
T4 sequence (P08069 31-1367): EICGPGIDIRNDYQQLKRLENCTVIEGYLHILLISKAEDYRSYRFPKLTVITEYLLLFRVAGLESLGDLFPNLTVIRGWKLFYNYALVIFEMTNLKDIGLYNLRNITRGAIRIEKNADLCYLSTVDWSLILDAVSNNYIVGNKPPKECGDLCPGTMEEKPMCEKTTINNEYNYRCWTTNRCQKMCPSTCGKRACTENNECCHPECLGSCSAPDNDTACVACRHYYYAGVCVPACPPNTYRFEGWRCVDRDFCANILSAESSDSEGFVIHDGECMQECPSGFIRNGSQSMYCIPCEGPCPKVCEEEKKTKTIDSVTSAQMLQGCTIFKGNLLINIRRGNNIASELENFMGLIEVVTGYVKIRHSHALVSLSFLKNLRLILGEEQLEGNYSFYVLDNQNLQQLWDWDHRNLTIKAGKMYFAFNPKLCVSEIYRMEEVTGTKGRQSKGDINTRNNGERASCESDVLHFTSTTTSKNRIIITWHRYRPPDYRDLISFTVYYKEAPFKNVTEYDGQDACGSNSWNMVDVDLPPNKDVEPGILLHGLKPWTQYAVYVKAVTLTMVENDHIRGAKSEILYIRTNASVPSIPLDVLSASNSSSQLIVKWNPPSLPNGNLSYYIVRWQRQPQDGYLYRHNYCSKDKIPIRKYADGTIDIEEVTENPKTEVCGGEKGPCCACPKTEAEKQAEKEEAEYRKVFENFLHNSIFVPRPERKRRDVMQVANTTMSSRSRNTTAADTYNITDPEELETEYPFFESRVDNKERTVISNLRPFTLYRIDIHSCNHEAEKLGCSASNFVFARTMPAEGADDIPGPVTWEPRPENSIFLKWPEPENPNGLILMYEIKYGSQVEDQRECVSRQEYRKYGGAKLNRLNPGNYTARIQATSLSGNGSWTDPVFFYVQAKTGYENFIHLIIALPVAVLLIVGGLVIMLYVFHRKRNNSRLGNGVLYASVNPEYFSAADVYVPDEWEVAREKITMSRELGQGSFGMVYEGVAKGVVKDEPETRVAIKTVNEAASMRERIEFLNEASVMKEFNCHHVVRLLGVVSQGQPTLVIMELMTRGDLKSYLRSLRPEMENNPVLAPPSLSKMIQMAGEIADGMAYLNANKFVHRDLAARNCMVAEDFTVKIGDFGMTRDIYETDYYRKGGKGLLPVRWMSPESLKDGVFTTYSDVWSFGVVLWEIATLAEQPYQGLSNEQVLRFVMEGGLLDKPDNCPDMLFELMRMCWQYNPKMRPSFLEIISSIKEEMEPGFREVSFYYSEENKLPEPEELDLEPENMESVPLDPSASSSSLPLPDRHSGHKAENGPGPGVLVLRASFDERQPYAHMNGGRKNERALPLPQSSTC

Consider `CCCN1CCC(c2ccc(Nc3nc(Nc4cccc(F)c4C(N)=O)c4cc[nH]c4n3)c(OC)c2)CC1` [Example 42, 2-fluoro-6-[(2-{[2-(methyloxy)-4-(1-propyl-4-piperidinyl)phenyl]amino}-1H-pyrrolo[2,3-d]pyrimidin-4-yl)amino]benzamide], for which the IC50 in the experiment on NCI-H929 is under 250 nM; in experiment [1], 100 to 500 nM; in the experiment with Colo205 it was under 250 nM; at human IGF1R (hIGF1R) it was 0.251 to 1 nM; against human IR (hIR), 0.251 to 1 nM; in experiment [2], 100 to 500 nM.

For `COc1cc2c(cc1Nc1nc(Nc3cc(Cl)cc(F)c3C(N)=O)c3cc[nH]c3n1)N(C(=O)CN1CCCC1)CCC2` [Example 173, 4-chloro-2-fluoro-6-[(2-{[6-(methyloxy)-1-(1-pyrrolidinylacetyl)-1,2,3,4-tetrahydro-7-quinolinyl]amino}-1H-pyrrolo[2,3-d]pyrimidin-4-yl)amino]benzamide], the IC50 in the experiment with NCI-H929 is under 250 nM; in experiment [1], 100 to 500 nM; on ALK, 0.251 to 1 nM; with Colo205, 250 to 1000 nM; in experiment [2], under 100 nM.

`COc1c(Nc2nc(Nc3cccc(F)c3C(N)=O)c3cc[nH]c3n2)ccc(N2CCN(C(C)C)CC2)c1C` [Example 50, 2-fluoro-6-[(2-{[3-methyl-4-[4-(1-methylethyl)-1-piperazinyl]-2-(methyloxy)phenyl]amino}-1 H-pyrrolo[2,3-d]pyrimidin-4-yl)amino]benzamide]: the IC50 was 250 to 1000 nM in the experiment with NCI-H929; over 500 nM in experiment [1]; 1.26 to 3.98 nM against ALK; over 1000 nM in the experiment with Colo205; over 500 nM in experiment [2].

For the molecule `CNC(=O)c1c(Nc2nc(Nc3cc4c(cc3OC)CCN4C(=O)CN(C)C)nc3[nH]ccc23)ccc(F)c1F` [Example 160, 6-[(2-{[1-(N,N-dimethylglycyl)-5-(methyloxy)-2,3-dihydro-1H-indol-6-yl]amino}-1H-pyrrolo[2,3-d]pyrimidin-4-yl)amino]-2,3-difluoro-N-methylbenzamide], the IC50 in the experiment with NCI-H929 was under 250 nM; on ALK, 1.26 to 3.98 nM; in the experiment on Colo205 it was 250 to 1000 nM; at human IGF1R (hIGF1R), 1.26 to 3.98 nM; on human IR (hIR) it was 1.26 to 3.98 nM.

Take `CNC(=O)c1c(F)cccc1Nc1nc(Nc2cc3c(cc2OC)CCN3C(=O)[C@@H](C)N(C)C)nc2[nH]ccc12` [Example 195, 2-[(2-{[1-(N,N-dimethyl-D-alanyl)-5-(methyloxy)-2,3-dihydro-1H-indol-6-yl]amino}-1H-pyrrolo[2,3-d]pyrimidin-4-yl)amino]-6-fluoro-N-methylbenzamide]: the IC50 in the experiment on NCI-H929 is 250 to 1000 nM; against ALK it was 1.26 to 3.98 nM; in the experiment on Colo205 it was 250 to 1000 nM; on human IGF1R (hIGF1R), 1.26 to 3.98 nM; against human IR (hIR) it was 1.26 to 3.98 nM.

Take `COc1cc2ccn(CC(=O)N(C)C)c2cc1Nc1nc(Nc2cccc(F)c2C(N)=O)c2cc[nH]c2n1` [Example 196, 2-[(2-{[1-[2-(dimethylamino)-2-oxoethyl]-5-(methyloxy)-1H-indol-6-yl]amino}-1H-pyrrolo[2,3-d]pyrimidin-4-yl)amino]-6-fluorobenzamide]: the IC50 was over 1000 nM in the experiment with NCI-H929; over 500 nM in experiment [1]; 5.01 to 200 nM at ALK; 5.01 to 200 nM at human IGF1R (hIGF1R); over 500 nM in experiment [2].

With `COc1cc2c(cc1Nc1nc(Nc3cccc(F)c3C(N)=O)c3cc[nH]c3n1)N(C(=O)CN1CCCC1)CCC2(C)C` [Example 223, 2-[(2-{[4,4-dimethyl-6-(methyloxy)-1-(1-pyrrolidinylacetyl)-1,2,3,4-tetrahydro-7-quinolinyl]amino}-1H-pyrrolo[2,3-d]pyrimidin-4-yl)amino]-6-fluorobenzamide], the IC50 in the experiment on NCI-H929 is under 250 nM; at ALK, 0.251 to 1 nM; in the experiment on Colo205, under 250 nM; on human IGF1R (hIGF1R) it was 0.251 to 1 nM; on human IR (hIR), 0.251 to 1 nM.

Regarding `COc1cc2c(cc1Nc1nc(Nc3cccc(F)c3C(N)=O)c3cc[nH]c3n1)NC(=O)CC2(C)C` [Example 227, 2-[(2-{[4,4-dimethyl-6-(methyloxy)-2-oxo-1,2,3,4-tetrahydro-7-quinolinyl]amino}-1H-pyrrolo[2,3-d]pyrimidin-4-yl)amino]-6-fluorobenzamide], the IC50 with NCI-H929 was 250 to 1000 nM; on ALK, 1.26 to 3.98 nM; with Colo205, 250 to 1000 nM; on human IGF1R (hIGF1R) it was 1.26 to 3.98 nM; at human IR (hIR), 0.251 to 1 nM.

With `CNC(=O)c1c(F)cccc1Nc1nc(Nc2cc3c(cc2OC)C(C)(C)CCN3C(=O)CN2CCCC2)nc2[nH]ccc12` [Example 224, 2-[(2-{[4,4-dimethyl-6-(methyloxy)-1-(1-pyrrolidinylacetyl)-1,2,3,4-tetrahydro-7-quinolinyl]amino}-1H-pyrrolo[2,3-d]pyrimidin-4-yl)amino]-6-fluoro-N-methylbenzamide], the IC50 is under 250 nM in the experiment with NCI-H929; 1.26 to 3.98 nM and 0.251 to 1 nM against ALK; 250 to 1000 nM with Colo205; 0.251 to 1 nM on human IGF1R (hIGF1R); 0.251 to 1 nM against human IR (hIR).

`COc1cc2c(cc1Nc1nc(Nc3ccc(F)c(F)c3C(N)=O)c3cc[nH]c3n1)N(C(=O)CN(C)C)CC2` [Example 159, 6-[(2-{[1-(N,N-dimethylglycyl)-5-(methyloxy)-2,3-dihydro-1H-indol-6-yl]amino}-1H-pyrrolo[2,3-d]pyrimidin-4-yl)amino]-2,3-difluorobenzamide]: the IC50 in the experiment on NCI-H929 was under 250 nM; against ALK it was 1.26 to 3.98 nM; in the experiment with Colo205 it was under 250 nM; at human IGF1R (hIGF1R) it was 1.26 to 3.98 nM; at human IR (hIR), 1.26 to 3.98 nM.

As for `COc1cc2c(cc1Nc1nc(Nc3cccc(F)c3C(N)=O)c3cc[nH]c3n1)N(C(=O)CN(C)C)CCC2(C)C` [Example 225, 2-[(2-{[1-(N,N-dimethylglycyl)-4,4-dimethyl-6-(methyloxy)-1,2,3,4-tetrahydro-7-quinolinyl]amino}-1H-pyrrolo[2,3-d]pyrimidin-4-yl)amino]-6-fluorobenzamide], the IC50 in the experiment on NCI-H929 was under 250 nM; on ALK it was 0.251 to 1 nM; with Colo205 it was under 250 nM; at human IGF1R (hIGF1R), 0.251 to 1 nM; against human IR (hIR) it was 0.251 to 1 nM.

Turning to `CNC(=O)c1c(F)cccc1Nc1nc(Nc2cc3c(cc2OC)C(C)(C)CC(=O)N3)nc2[nH]ccc12` [Example 228, 2-[(2-{[4,4-dimethyl-6-(methyloxy)-2-oxo-1,2,3,4-tetrahydro-7-quinolinyl]amino}-1H-pyrrolo[2,3-d]pyrimidin-4-yl)amino]-6-fluoro-N-methylbenzamide], the IC50 is 250 to 1000 nM in the experiment with NCI-H929; 1.26 to 3.98 nM on ALK; over 1000 nM with Colo205; 1.26 to 3.98 nM at human IGF1R (hIGF1R); 1.26 to 3.98 nM against human IR (hIR).

Turning to `COc1cc2c(cc1Nc1nc(Nc3cc(F)cc(F)c3C(N)=O)c3cc[nH]c3n1)N(C(=O)[C@@H]1CCCN1C)CC2` [Example 148, 2,4-difluoro-6-[(2-{[5-(methyloxy)-1-(1-methyl-L-prolyl)-2,3-dihydro-1H-indol-6-yl]amino}-1H-pyrrolo[2,3-d]pyrimidin-4-yl)amino]benzamide], the IC50 was 250 to 1000 nM with NCI-H929; 5.01 to 200 nM against ALK; 250 to 1000 nM in the experiment with Colo205; 1.26 to 3.98 nM at human IGF1R (hIGF1R); 1.26 to 3.98 nM at human IR (hIR).
